In the CheMixHub viscosity set:

Assay: xn = mol fraction of the nth substance listed

O=C1CCCC1 + CCCCOC(C)=O
viscosity [mPa·s], 101 kPa
Conditions | x2 = 0.0703 | x2 = 0.1461 | x2 = 0.2264 | x2 = 0.3112 | x2 = 0.4036 | x2 = 0.4995 | x2 = 0.6079 | x2 = 0.7264 | x2 = 0.8541
298.15 K | 1.044 | 1 | 0.957 | 0.913 | 0.867 | 0.826 | 0.785 | 0.749 | 0.714
303.15 K | 0.961 | 0.921 | 0.881 | 0.84 | 0.797 | 0.758 | 0.72 | 0.686 | 0.654
308.15 K | 0.892 | 0.856 | 0.82 | 0.783 | 0.746 | 0.71 | 0.676 | 0.645 | 0.618
313.15 K | 0.835 | 0.8 | 0.766 | 0.732 | 0.697 | 0.662 | 0.63 | 0.6 | 0.575

ClC=C(Cl)Cl + CCCCCCCO
303.15 K, 101 kPa
Conditions | viscosity [mPa·s]
x2 = 0.1161 | 0.734
x2 = 0.2045 | 0.863
x2 = 0.3792 | 1.166
x2 = 0.4884 | 1.459
x2 = 0.5714 | 1.767
x2 = 0.6298 | 2.03
x2 = 0.737 | 2.643
x2 = 0.8161 | 3.197
x2 = 0.9242 | 4.119

CC(O)CO (configuration not stated) + CCCO
313 K, 101 kPa
Conditions | viscosity [mPa·s]
x1 = 0.1 | 1.9
x1 = 0.3 | 2.9
x1 = 0.5 | 4.8
x1 = 0.7 | 8.3
x1 = 0.9 | 15

Cc1ccccn1 + O
viscosity [mPa·s]
Conditions | 298.15 K | 303.15 K | 313.15 K | 323.15 K
101 kPa, x1 = 0.02168 | 1.207 | – | – | –
101 kPa, x1 = 0.05477 | 1.711 | – | – | –
101 kPa, x1 = 0.1594 | 2.779 | – | – | –
101 kPa, x1 = 0.2977 | 3.166 | – | – | –
101 kPa, x1 = 0.6247 | 1.736 | – | – | –
101.3 kPa, x1 = 0.1 | – | 1.916 | 1.467 | 1.168
101.3 kPa, x1 = 0.2 | – | 2.506 | 1.839 | 1.42
101.3 kPa, x1 = 0.3 | – | 2.594 | 1.909 | 1.465
101.3 kPa, x1 = 0.3999 | – | 2.364 | 1.757 | 1.362
101.3 kPa, x1 = 0.4997 | – | 1.982 | 1.515 | 1.201
101.3 kPa, x1 = 0.5999 | – | 1.554 | 1.237 | 1.008
101.3 kPa, x1 = 0.7 | – | 1.234 | 1.016 | 0.8611
101.3 kPa, x1 = 0.8146 | – | 0.9988 | 0.8497 | 0.7336
101.3 kPa, x1 = 0.8999 | – | 0.8499 | 0.7339 | 0.6501
